The results in this text go back to US20030104007A1, “Pseudopterosin compounds of Symbiodinium spp isolated from Pseudopterogorgia elisabethae” (priority 2001, published 2003).

The subject of one assay is Tetrahymena thermophila. Put plainly: Tetrahymena thermophila phagocytic activity (India ink food vacuole formation). The following applies: read-out: IC50, inhibition of phagocytic activity. It counts as cell-based. How it is done:
In Tetrahymena thermophila, PsA and elisabethadione were potent inhibitors of phagocytic activity with IC50 of 0.4 and 0.1 μM, respectively. A test compound may be assayed as follows. Log-phase Tetrahymena thermophila cultures are grown in 2% proteose peptone, 0.1% glucose at 25° C. A volume comprising 1×10^7 cells are centrifuged at 450 g for 5 minutes. The pellet is washed and resuspended in 3.15 ml of 50 mM TRIS-HCl buffer at pH 7.7. The test compound is prepared at a desired concentration in 0.4 ml volumes. For control samples, 0.4 ml of buffer is used. 0.45 ml of diluted India ink (1:25, v:v) is added to each drug preparation. At t=0, the drug/ink mixture is added to the Tetrahymena cells, and at t=10 min., […] samples of cell suspension are removed and fixed in 10% formaldehyde. At least 100 random cells from each sample are then examined in a light microscope. Phagocytic activity is assessed by calculating the ratio of cells with food vacuoles compared to the cells with no food vacuoles.

The subject of assay [1] is prostaglandin E2 production in zymosan-stimulated murine peritoneal macrophages. Nature of the assay: Prostaglandin E2 production in zymosan-stimulated murine peritoneal macrophages. It counts as cell-based. Conditions: read-out: IC50, inhibition of prostaglandin E2 production.
Assay [2] relates to leukotriene C4 production in zymosan-stimulated murine peritoneal macrophages. Nature of the assay: Leukotriene C4 production in zymosan-stimulated murine peritoneal macrophages. Conditions: read-out: IC50, inhibition of leukotriene C4 production. It counts as cell-based.
Assay [3] relates to PMA-induced mouse ear edema. Nature of the assay: Inhibition of PMA-induced inflammation (edema) of the mouse ear. It counts as in vivo. Conditions: administered topically. How it is done: A test compound is topically applied in acetone to the inside pinnae of the ears of mice in a solution containing the edema-causing irritant, phorbol 12-myristate 13-acetate (PMA). PMA alone (2 μg/ear) or in combination with the test compound is applied to left ears (5 mice per treatment group) and acetone is applied to all right ears. After 3 hour 20 minute incubation, the mice are euthanized, the ears are removed, and bores are taken and weighed. Edema is measured by subtracting the weight of the right ear (acetone control) from the weight of the left ear (treated). Results are recorded as % decreases (inhibition) or % increase (potentiation) in edema relative to the PMA control group edema. Test compounds are screened at 50 or 25 μg/ear.
This signaling mechanism may be coupled to phagosome formation. The endogenous production of eicosanoids and their role in phagosome formation may be evaluated by using […] as pharmacological probes and analyzing arachidonic acid products by conventional means.

On to `CC(C)=CCC[C@H](C)[C@H]1CC[C@H](C)C2=C1C(=O)C(C)=C(O)C2=O` [elisabethadione], for which the IC50 in the assay on Tetrahymena thermophila is 100 nM.

As to `CC(C)=C[C@H]1C[C@H](C)[C@H]2CC[C@H](C)c3c(O[C@@H]4OC[C@@H](O)[C@H](O)[C@H]4O)c(O)c(C)c1c32` [PsA, Pseudopterosin A], the half-inhibitory concentration (IC50) in assay [1] amounted to 4000 nM; with Tetrahymena thermophila, 400 nM; in assay [2], 1000 nM. Further, in assay [3], the “ED50, reducing PMA-induced mouse ear edema” value is 8 μg/ear.

On to `CC(C)=C[C@H]1C[C@H](C)[C@H]2CC[C@H](C)c3c(O)c(O[C@@H]4O[C@@H](C)[C@@H](O)[C@@H](O)[C@@H]4O)c(C)c1c32` [PsE, Pseudopterosin E], for which the “ED50, reducing PMA-induced mouse ear edema” value in assay [3] is recorded as 38 μg/ear.

What is called IC50 is the midpoint of a concentration-inhibition curve.
